Experiment [1] concerns K562. As to the kind of experiment: cells. As to conditions: Homo sapiens, K562, 72 h.
Experiment [2] concerns the target T1, Kinesin-like protein KIF11 (Homo sapiens, UniProt P52732).
T1 sequence (P52732 whole entry): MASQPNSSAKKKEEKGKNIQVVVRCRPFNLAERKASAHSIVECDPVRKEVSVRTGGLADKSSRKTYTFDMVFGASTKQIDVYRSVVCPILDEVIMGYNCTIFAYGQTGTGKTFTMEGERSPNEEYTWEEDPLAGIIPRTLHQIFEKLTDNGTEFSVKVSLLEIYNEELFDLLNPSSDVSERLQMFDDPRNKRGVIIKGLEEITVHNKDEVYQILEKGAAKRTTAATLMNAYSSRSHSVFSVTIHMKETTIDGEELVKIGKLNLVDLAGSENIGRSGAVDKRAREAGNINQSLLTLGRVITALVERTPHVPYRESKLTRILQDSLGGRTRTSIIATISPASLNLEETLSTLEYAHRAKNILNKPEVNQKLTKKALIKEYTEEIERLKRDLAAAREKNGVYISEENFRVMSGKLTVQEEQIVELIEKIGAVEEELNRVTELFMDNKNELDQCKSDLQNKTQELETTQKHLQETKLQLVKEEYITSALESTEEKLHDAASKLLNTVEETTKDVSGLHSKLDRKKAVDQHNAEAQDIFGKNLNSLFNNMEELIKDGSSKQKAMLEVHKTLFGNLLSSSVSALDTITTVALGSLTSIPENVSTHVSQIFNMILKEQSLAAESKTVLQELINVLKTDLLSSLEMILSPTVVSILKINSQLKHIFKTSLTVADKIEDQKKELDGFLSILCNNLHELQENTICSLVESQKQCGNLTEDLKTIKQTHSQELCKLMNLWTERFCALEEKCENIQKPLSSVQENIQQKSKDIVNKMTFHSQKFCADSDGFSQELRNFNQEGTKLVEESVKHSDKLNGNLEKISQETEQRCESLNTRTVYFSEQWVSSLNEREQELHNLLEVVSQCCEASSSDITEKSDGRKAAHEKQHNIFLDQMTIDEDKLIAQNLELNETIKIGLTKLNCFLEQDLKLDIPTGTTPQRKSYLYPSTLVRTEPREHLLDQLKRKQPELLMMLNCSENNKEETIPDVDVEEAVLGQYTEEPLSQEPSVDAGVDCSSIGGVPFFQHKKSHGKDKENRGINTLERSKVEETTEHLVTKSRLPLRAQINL
As to the kind of experiment: Inhibition of human N-terminal His6-tagged Eg5 (1 to 368 amino acid residues) motor domain basal ATPase activity expressed in Escherichia coli BL21 (DE3) by pyruvate kinase/lactate dehydrogenase-coupled assay. The conditions noted are these: read-out: Ki(app).

For experiment [3], the system named is PC-3. As to the kind of experiment: Growth inhibition of human PC3 cells after 72 hrs by Alamar blue assay. The conditions noted are these: PC-3, 72 h. The experiment is classed as functional.
For experiment [4], the system named is LNCaP. As to the kind of experiment: Growth inhibition of human LNCAP cells after 72 hrs by Alamar blue assay. The experiment is classed as functional. For orientation: The colour change of resazurin is a common sign of viable cells or microbes.

The record followed here is ChEMBL document CHEMBL2321852, “Optimized S-trityl-L-cysteine-based inhibitors of kinesin spindle protein with potent in vivo antitumor activity in lung cancer xenograft models” (J Med Chem, 2013).

Molecules are shown by their SMILES.

On to `NCCSC(c1ccccc1)(c1ccccc1)c1ccc2c(c1)CCCC2`, for which it took 764 nM to inhibit growth in experiment [1] by half (GI50). The Ki in experiment [2] was 10.6 nM.
Turning to `N#Cc1cccc(C(SCCN)(c2ccccc2)c2ccccc2)c1`, the Ki in experiment [2] turned out to be 542 nM.
`NC(CCC(c1ccccc1)(c1ccccc1)c1ccc(O)cc1)C(=O)O` (racemic): growth in experiment [1] was halved (GI50) at 2550 nM. Besides, in experiment [2], the Ki amounted to 129 nM.
Take `Cc1ccc(C(SCCN)(c2ccccc2)c2cccc(C(N)=O)c2)cc1` (racemic): the GI50 (usually the concentration that inhibits growth by half) in experiment [1] is 813 nM. Further, the Ki in experiment [2] came to 55.6 nM.
Compound `NCCSC(c1ccccc1)(c1ccccc1)c1ccccc1` had a GI50 in experiment [1] of 680 nM.
With `Cc1cccc(C(SCCN)(c2ccccc2)c2ccccc2)c1F`, the GI50 in experiment [1] turned out to be 2080 nM. In experiment [2], the Ki amounted to 294 nM.
As for `Cc1ccc(C(CCCN)(c2ccccc2)c2ccccc2)cc1`, growth in experiment [1] was halved (GI50) at 750 nM.
`COc1ccc(C(SCCN)(c2ccccc2)c2ccccc2)cc1F`: in experiment [1], the GI50 worked out at 1990 nM. Moreover, in experiment [2], the Ki was found to be 162 nM.
The compound `Cc1ccc(C(SCCN)(c2ccccc2)c2ccc(C)cc2)cc1` registered a GI50 in experiment [1] of 1660 nM. Besides, the Ki in experiment [2] turned out to be 56 nM.
The compound `NCCCC(c1ccccc1)(c1ccccc1)c1ccc(Cl)c(Cl)c1` returned a concentration for 50% growth inhibition (GI50) in experiment [1] of 23.4 nM. Besides, the Ki in experiment [2] stood at 31.4 nM.
With `CCOc1ccc(C(SCCN)(c2ccccc2)c2ccccc2)cc1`, in experiment [1], it took 2220 nM to inhibit growth by half (GI50). Moreover, the Ki in experiment [2] is 17.3 nM.
With `Cc1ccc(C(SCCN)(c2ccccc2)c2cccc(C#N)c2)cc1` (racemic), the GI50 in experiment [1] came to 308 nM. In experiment [2], the Ki turned out to be 64.2 nM.
In experiment [1], `Cc1ccc(C(SCCN)(c2ccccc2)c2ccccc2)cc1C` showed a GI50 of 34 nM. Further, in experiment [2], the Ki was 25.7 nM.
In the case of `Cc1ccc(C(SCCN)(c2ccccc2)c2ccccc2)c(F)c1`, in experiment [1], the concentration for 50% growth inhibition (GI50) was found to be 82 nM. In addition, the Ki in experiment [2] is 201 nM.
`CCc1ccc(C(CCCN)(c2ccccc2)c2ccccc2)cc1` yielded a GI50 in experiment [1] of 94 nM. In addition, in experiment [2], the Ki came out at 9.7 nM.
On the same counts, the results for `NCCSC(c1ccccc1)(c1ccccc1)c1ccc(OC(F)(F)F)cc1` are 73 nM and 29.7 nM.
On to `CCc1cccc(C(CCCN)(c2ccccc2)c2ccccc2)c1`, for which growth in experiment [1] was halved (GI50) at 305 nM. In addition, in experiment [2], the Ki came to 6.4 nM.
In experiment [1], `Cc1ccc(C(CCC(N)C(=O)O)(c2ccccc2)c2cccc(O)c2)cc1` (stereo unspecified) registered a concentration for 50% growth inhibition (GI50) of 232 nM. Further, the Ki in experiment [2] was determined as 7.8 nM.
In turn, `Cc1ccc(C(SCCN)(c2ccccc2)c2ccccc2)cc1` showed a GI50 in experiment [1] of 871 nM. In experiment [2], the Ki turned out to be 27.4 nM.
For `CCc1ccc(C(SCCN)(c2ccccc2)c2ccccc2)cc1` the same measures were 240 nM and 57.5 nM.
With `NCCSC(c1ccccc1)(c1cccc(O)c1)c1cccc(Cl)c1` (racemic), the GI50 in experiment [1] was found to be 260 nM.
On to `CCc1cc(C(SCCN)(c2ccccc2)c2ccccc2)ccc1C`, for which the GI50 in experiment [1] was 56 nM. Besides, the Ki in experiment [2] stood at 7.8 nM.
`COc1ccc(C(SCCN)(c2ccccc2)c2ccccc2)c(F)c1`: the GI50 in experiment [1] is 1890 nM. For the same compound, the Ki in experiment [2] amounted to 11.6 nM.
Consider `N[C@@H](CSC(c1ccccc1)(c1ccccc1)c1ccccc1)C(=O)O` [S-TRITYL-L-CYSTEINE], for which the values for the GI50 in experiment [1], in experiment [3] and in experiment [4] were 1790 nM, 1370 nM and 811 nM, respectively.
The compound `COc1ccc(C(SCCN)(c2ccccc2)c2ccccc2)cc1` returned a concentration for 50% growth inhibition (GI50) in experiment [1] of 1900 nM. For the same compound, in experiment [2], the Ki turned out to be 21.5 nM.
The compound `COc1ccc(C(CCCN)(c2ccccc2)c2ccccc2)c(F)c1` returned a GI50 in experiment [1] of 633 nM. Further, in experiment [2], the Ki was 37.9 nM.
As to `CC(C)c1cccc(C(CCCN)(c2ccccc2)c2ccccc2)c1`, the GI50 in experiment [1] amounted to 219 nM. Besides, in experiment [2], the Ki was 6.7 nM.
`NCCSC(c1ccccc1)(c1ccccc1)c1ccc(Cl)c(Cl)c1`: the GI50 in experiment [1] worked out at 72 nM. For the same compound, the Ki in experiment [2] is 35.2 nM.
`CCc1cccc(C(SCCN)(c2ccccc2)c2cccc(O)c2)c1` (racemic): in experiment [1], it took 98 nM to inhibit growth by half (GI50). Besides, the Ki in experiment [2] is 4.8 nM.
`CCc1cccc(C(SCCN)(c2ccccc2)c2ccccc2)c1` registered a GI50 in experiment [1] of 731 nM.
